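Compound exposure: 48 hours, 5 concentrations, 96-well plates. At the GI50, growth is halved.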 Calls of active or inactive are those of the source. Rule as the data show it: active = GI50 up to about 1.1 µM and inactive = higher.
Tests used:
Test in all cases: NCI-60 cell line screen, 48 h
[1] = system: U-251
[2] = system: Malme-3M
[3] = system: OVCAR-3
[4] = system: SF-268
[5] = system: NCI-H226
[6] = system: OVCAR-5
[7] = system: SNB-75
[8] = system: TK-10
[9] = system: MDA-MB-435
[10] = system: UACC-257
[11] = system: SW-620
[12] = system: OVCAR-8
[13] = system: HCT-15
[14] = system: M14
[15] = system: A549
[16] = system: SN12C
[17] = system: NCI-H522
[18] = system: ACHN
[19] = system: MOLT-4
[20] = system: K562

Row | SMILES | GI50 [1] | GI50 [2] | GI50 [3] | GI50 [4] | GI50 [5] | GI50 [6] | GI50 [7] | GI50 [8] | GI50 [9] | GI50 [10] | GI50 [11] | GI50 [12] | GI50 [13] [µM] | GI50 [14] | GI50 [15] | GI50 [16] | GI50 [17] | GI50 [18] | GI50 [19] | GI50 [20]
1 | O=C(Nc1ccn(C2CCC(COC(c3ccccc3)(c3ccccc3)c3ccccc3)O2)c(=O)n1)c1ccccc1 (stereo unspecified) | 4.06 µM (inactive) | 3.18 µM (inactive) | 2.4 µM (inactive) | 7.64 µM (inactive) | 6.9 µM (inactive) | 3.76 µM (inactive) | 2.39 µM (inactive) | 5.12 µM (inactive) | 3.42 µM (inactive) | 6.81 µM (inactive) | 4.94 µM (inactive) | 4.82 µM (inactive) | 4.18 | 3.48 µM (inactive) | 4.21 µM (inactive) | 1.88 µM (inactive) | 5.32 µM (inactive) | 3.8 µM (inactive) | 2.56 µM (inactive) | 2.86 µM (inactive)
2 | CCOC(=O)C1CCC(=O)N1C(=O)c1ccc(Cl)cc1 (stereo unspecified) | > 100 µM (inactive) | > 100 µM (inactive) | > 100 µM (inactive) | > 100 µM (inactive) | > 100 µM (inactive) | > 100 µM (inactive) | > 100 µM (inactive) |  | > 100 µM (inactive) | > 100 µM (inactive) | > 100 µM (inactive) | > 100 µM (inactive) | > 100 | > 100 µM (inactive) | > 100 µM (inactive) | > 100 µM (inactive) | > 100 µM (inactive) | > 100 µM (inactive) | > 100 µM (inactive) | > 100 µM (inactive)
3 | N#CC1=C(N)N(c2ccccc2)C(c2ccco2)C1(C#N)C#N (stereo unspecified) | 21.8 µM (inactive) | 22.9 µM (inactive) | 19 µM (inactive) | 34.7 µM (inactive) | 18 µM (inactive) | 22.9 µM (inactive) | 20 µM (inactive) | 16.4 µM (inactive) | 28.4 µM (inactive) | 18.4 µM (inactive) | 17.9 µM (inactive) | 23.3 µM (inactive) | 18.3 | 20.6 µM (inactive) | 38.2 µM (inactive) | 30.3 µM (inactive) | 16.7 µM (inactive) | 16.7 µM (inactive) | 25.5 µM (inactive) | 6.58 µM (inactive)
4 | CC(NCc1c(O)ccc2ccc(=O)oc12)C(=O)O (stereo unspecified) | > 100 µM (inactive) | > 100 µM (inactive) | > 100 µM (inactive) | > 100 µM (inactive) | > 100 µM (inactive) | > 100 µM (inactive) | > 100 µM (inactive) | > 100 µM (inactive) | > 100 µM (inactive) | > 100 µM (inactive) | > 100 µM (inactive) | > 100 µM (inactive) | > 100 | > 100 µM (inactive) | > 100 µM (inactive) | > 100 µM (inactive) | > 100 µM (inactive) | > 100 µM (inactive) | > 100 µM (inactive) | > 100 µM (inactive)
5 | OCC1CCCC(n2cnc3c(S)ncnc32)O1 (stereo unspecified) | > 100 µM (inactive) | > 100 µM (inactive) | > 100 µM (inactive) | > 100 µM (inactive) | > 100 µM (inactive) | > 100 µM (inactive) | > 100 µM (inactive) | > 100 µM (inactive) | > 100 µM (inactive) | > 100 µM (inactive) | > 100 µM (inactive) | > 100 µM (inactive) | > 100 | > 100 µM (inactive) | > 100 µM (inactive) | > 100 µM (inactive) | > 100 µM (inactive) | > 100 µM (inactive) |  | > 100 µM (inactive)
6 | NC(=O)CC[C@H]1C(=O)N=C(N)N1C(=O)OCc1ccccc1 | > 100 µM (inactive) | > 100 µM (inactive) | > 100 µM (inactive) | > 100 µM (inactive) | > 100 µM (inactive) | > 100 µM (inactive) | > 100 µM (inactive) | > 100 µM (inactive) | > 100 µM (inactive) | > 100 µM (inactive) | > 100 µM (inactive) | > 100 µM (inactive) | > 100 |  |  | > 100 µM (inactive) | > 100 µM (inactive) | > 100 µM (inactive) | > 100 µM (inactive) | > 100 µM (inactive)
7 | Nc1ccc2c(SCCSc3c4ccccc4nc4cc(N)ccc34)c3ccccc3nc2c1 | 49.3 µM (inactive) | > 100 µM (inactive) | > 100 µM (inactive) | > 100 µM (inactive) | > 100 µM (inactive) | > 100 µM (inactive) | > 100 µM (inactive) | > 100 µM (inactive) | > 100 µM (inactive) | > 100 µM (inactive) | > 100 µM (inactive) | > 100 µM (inactive) | > 100 | > 100 µM (inactive) | > 100 µM (inactive) | > 100 µM (inactive) | > 100 µM (inactive) | 55.7 µM (inactive) | 15.7 µM (inactive) | 38.6 µM (inactive)

— ChEMBL document CHEMBL1201862, “PubChem BioAssay data set” (2004)
